Patent publication US10278999B2, “Synthesis of Nuxia oppositifolia nanoparticles” (KING SAUD UNIVERSITY, priority 2017, dated 2019)

Legend:
Test in all cases: Antimicrobial activity, agar diffusion technique
Format in all cases: cell-based
Conditions in all cases: mean ± S.D. beyond well diameter (6 mm), 100 μl of samples
[1] = system: Absidia corymbifera (RCMB 02564)
Procedure: (§1) The antimicrobial effect of N. oppositifolia nanoparticles synthesized according to Example 1 were evaluated against gram positive bacteria, gram negative bacteria, as well as fungi.
(§2) The antimicrobial effect of N. oppositifolia nanoparticles synthesized according to Example 2 were evaluated against gram positive bacteria, gram negative bacteria, as well as fungi.

[2] = system: Candida albicans (RCMB 05036)
Procedure: as §1, §2

[3] = system: Geotricum candidum (RCMB 05097)
Procedure: as §1, §2

[4] = system: Staphylococcus epidermidis (RCMB 010024)
Procedure: as §1, §2

[5] = system: Streptococcus pyogenes (RCMB 010015)
Procedure: as §1, §2

[6] = system: Klebsiella pneumoniae (RCMB 0010093)
Procedure: as §1, §2

[7] = system: Proteous vulgaris (RCMB 010085)
Procedure: as §1, §2

[8] = system: Salmonella enteritidis (RCMB 010084)
Procedure: as §1, §2

C[C@@H]1[C@H](O)[C@@H](C)/C=C/C=C/C=C/C=C/C=C/C=C/C=C/[C@H](O[C@@H]2O[C@H](C)[C@@H](O)[C@H](N)[C@@H]2O)C[C@@H]2O[C@](O)(C[C@@H](O)C[C@@H](O)[C@H](O)CC[C@@H](O)C[C@@H](O)CC(=O)O[C@H]1C)C[C@H](O)[C@H]2C(=O)O [Amphotericin B]
Zone of Inhibition (±SD) [1]: 23.0 ± 0.10 mm
Zone of Inhibition (±SD) [2]: 25.7 ± 0.10 mm
Zone of Inhibition (±SD) [3]: 27.0 ± 0.20 mm

CC1(C)S[C@@H]2[C@H](NC(=O)[C@H](N)c3ccccc3)C(=O)N2[C@H]1C(=O)O [Ampicillin]
Zone of Inhibition (±SD) [4]: 25.0 ± 0.18 mm
Zone of Inhibition (±SD) [5]: 26.3 ± 0.34 mm

Gentamycin
Zone of Inhibition (±SD) [6]: 26.4 ± 0.15 mm
Zone of Inhibition (±SD) [7]: 23.4 ± 0.30 mm
Zone of Inhibition (±SD) [8]: 25.2 ± 0.18 mm
